Where “and” joins values, the source holds several entries; their conditions need not be identical. Equal values may be shown once. Inconclusive results and toxic doses are left out. How the source made its calls: active means survival T/C of 150% or more; inactive means T/C below 125% in these data.
System: P388 leukemia ip, CD2F1 mice, survival T/C
Assay: NCI In Vivo Anticancer Drug Screen. Data for tumor model P388 Leukemia (intraperitoneal) in CD2F1 (CDF1) mice
Details: endpoint: median survival time, higher = longer survival
In short: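 Mice carrying the transplanted tumor received test compound or vehicle. Survival was recorded in each group, and the value is the treated-group measurement divided by that of the vehicle-treated control group.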

[1] = dose: 50.0 mg/kg/injection, schedule: Q01DX005 (ip), vehicle: Klucel (hydroxypropylcellulose) (HPC)
[2] = dose: 100.0 mg/kg/injection, schedule: Q01DX005 (ip), vehicle: Klucel (hydroxypropylcellulose) (HPC)
[3] = dose: 200.0 mg/kg/injection, schedule: Q01DX005 (ip), vehicle: Klucel (hydroxypropylcellulose) (HPC)
[4] = dose: 50.0 mg/kg/injection, schedule: Q01DX009 (ip), vehicle: saline with Tween-80
[5] = dose: 100.0 mg/kg/injection, schedule: Q01DX009 (ip), vehicle: saline with Tween-80
[6] = dose: 200.0 mg/kg/injection, schedule: Q01DX009 (ip), vehicle: saline with Tween-80
[7] = dose: 50.0 mg/kg/injection, schedule: Q01DX005 (ip), vehicle: saline with Tween-80
[8] = dose: 100.0 mg/kg/injection, schedule: Q01DX005 (ip), vehicle: saline with Tween-80
[9] = dose: 200.0 mg/kg/injection, schedule: Q01DX005 (ip), vehicle: saline with Tween-80
[10] = dose: 60.0 mg/kg/injection, schedule: Q01DX005 (ip), vehicle: saline with Tween-80
[11] = dose: 25.0 mg/kg/injection, schedule: Q01DX009 (ip), vehicle: saline with Tween-80
[12] = dose: 100.0 mg/kg/injection, schedule: Q04DX003 (ip), vehicle: saline
[13] = dose: 120.0 mg/kg/injection, schedule: Q01DX005 (ip), vehicle: saline with Tween-80
[14] = dose: 240.0 mg/kg/injection, schedule: Q01DX005 (ip), vehicle: saline with Tween-80

Measured: T/C

Nc1c(S)cc(O)c2c1C(=O)c1ccccc1C2=O
inactive: [1] 99 % of control | [2] 103 % of control | [3] 107 % of control

COC1(Cl)CC1C#N (configuration not stated)
inactive: [4] 117 % of control | [5] 96 % of control | [6] 105 % of control

O=C1C=C2CCCCCCCC(C1)C2 (configuration not stated)
inactive: [1] 113 % of control | [2] 108 % of control | [3] 110 % of control

CCc1onc(-c2noc(CC)c2C)c1C
inactive: dose: 60.0 mg/kg/injection, schedule: Q01DX005 (ip), vehicle: saline 98 % of control | dose: 120.0 mg/kg/injection, schedule: Q01DX005 (ip), vehicle: saline 104 % of control | dose: 240.0 mg/kg/injection, schedule: Q01DX005 (ip), vehicle: saline 107 % of control

O=C1CC2OCC=C3CN4CCC56c7ccccc7N1C5C2C3CC46 (configuration not stated)
inactive: dose: 0.2 mg/kg/injection, schedule: Q01DX009 (ip), vehicle: saline with Tween-80 100 % of control | dose: 0.4 mg/kg/injection, schedule: Q01DX009 (ip), vehicle: saline with Tween-80 102 % of control | dose: 0.8 mg/kg/injection, schedule: Q01DX009 (ip), vehicle: saline with Tween-80 97 % of control

CC(C)(C)OC(=O)NCCCCC(NC(=O)OCC1c2ccccc2-c2ccccc21)C(=O)O (configuration not stated)
inactive: [1] 109 % of control | [2] 93 % of control

Oc1cccc(/C=N/N2CCc3ccccc3C2)c1
inactive: dose: 50.0 mg/kg/injection, schedule: Q01DX001 (ip), vehicle: Klucel (hydroxypropylcellulose) (HPC) 96 % of control | dose: 100.0 mg/kg/injection, schedule: Q01DX001 (ip), vehicle: Klucel (hydroxypropylcellulose) (HPC) 100 % of control | dose: 200.0 mg/kg/injection, schedule: Q01DX001 (ip), vehicle: Klucel (hydroxypropylcellulose) (HPC) 92 % of control

O=c1c2[nH]c3ccccc3sc=2c(=O)n1-c1c(F)c(F)c(F)c(F)c1F
inactive: [7] 109 % of control | [8] 103 % of control | [9] 100 % of control

COc1cc(C2CC(C)(OC)Oc3cc4c(cc32)OCO4)cc(OC)c1O (configuration not stated)
inactive: dose: 15.0 mg/kg/injection, schedule: Q01DX005 (ip), vehicle: saline with Tween-80 90 % of control | dose: 30.0 mg/kg/injection, schedule: Q01DX005 (ip), vehicle: saline with Tween-80 88 % of control | [10] 89 % of control

CCCCCCCCCCN(CCCCCCCCCC)CC(=O)c1ccc2cc(Br)c3ccccc3c2c1
inactive: dose: 25.0 mg/kg/injection, schedule: Q01DX005 (ip), vehicle: Klucel (hydroxypropylcellulose) (HPC) 96 % of control | [1] 89 % of control | [2] 98 % of control

CC(=O)OCC12C(=O)CC(C)C3(CC(c4ccoc4)OC3=O)C1(C)CCCC21CO1 (configuration not stated) (tested in a mixture with another compound)
inactive: dose: 12.0 mg/kg/injection, schedule: Q01DX005 (ip), vehicle: Klucel (hydroxypropylcellulose) (HPC) 94 % of control | dose: 24.0 mg/kg/injection, schedule: Q01DX005 (ip), vehicle: Klucel (hydroxypropylcellulose) (HPC) 92 % of control | dose: 48.0 mg/kg/injection, schedule: Q01DX005 (ip), vehicle: Klucel (hydroxypropylcellulose) (HPC) 91 % of control | dose: 96.0 mg/kg/injection, schedule: Q01DX005 (ip), vehicle: Klucel (hydroxypropylcellulose) (HPC) 100 % of control

Nc1nc2[nH]ncc2c(=O)[nH]1
inactive: [11] 90 % of control | [4] 100 % of control | dose: 50.0 mg/kg/injection, schedule: Q04DX003 (ip), vehicle: saline with Tween-80 104 % of control | [5] 90 % of control | dose: 100.0 mg/kg/injection, schedule: Q04DX003 (ip), vehicle: saline with Tween-80 109 % of control

C[CH2][Pb]([CH2]C)([CH2]C)[O]C(=O)c1ccc2ccccc2n1
inactive: dose: 0.25 mg/kg/injection, schedule: Q01DX009 (ip), vehicle: saline with Tween-80 100 % of control | dose: 0.5 mg/kg/injection, schedule: Q01DX009 (ip), vehicle: saline with Tween-80 103 % of control | dose: 1.0 mg/kg/injection, schedule: Q01DX009 (ip), vehicle: saline with Tween-80 99 % of control | dose: 2.0 mg/kg/injection, schedule: Q01DX009 (ip), vehicle: saline with Tween-80 94 % of control | dose: 4.0 mg/kg/injection, schedule: Q01DX009 (ip), vehicle: saline with Tween-80 112 % of control | dose: 8.0 mg/kg/injection, schedule: Q01DX009 (ip), vehicle: saline with Tween-80 90 % of control

C=C(C)C(=O)OCCN(CC)CC
inactive: [7] 100 % of control | [8] 99 % of control | [9] 100 % of control

O=C1OC(O)C(Cl)=C1Cl (configuration not stated)
inactive: dose: 0.79 mg/kg/injection, schedule: Q01DX005 (ip), vehicle: saline with Tween-80 111 % of control | dose: 1.56 mg/kg/injection, schedule: Q01DX005 (ip), vehicle: saline with Tween-80 112 % of control | dose: 3.12 mg/kg/injection, schedule: Q01DX005 (ip), vehicle: saline with Tween-80 114 % of control | dose: 6.25 mg/kg/injection, schedule: Q01DX005 (ip), vehicle: saline with Tween-80 120 % of control

CC(=O)OC1CC2CCCCC2[N+](C)(C)C1 (configuration not stated)
inactive: dose: 25.0 mg/kg/injection, schedule: Q04DX003 (ip), vehicle: saline 106 % of control | dose: 50.0 mg/kg/injection, schedule: Q04DX003 (ip), vehicle: saline 103 % of control | [12] 104 % of control

Fc1ccc(N2C(Cl)(Cl)C23c2ccccc2-c2ccccc23)cc1
inactive: dose: 12.5 mg/kg/injection, schedule: Q01DX009 (ip), vehicle: saline with Tween-80 104 % of control | [11] 103 % of control | [4] 94 % of control | [5] 103 % of control | [6] 112 % of control

CSC(=N\N=C\c1ccc2c(c1)OCO2)/N=C/N(C)C
inactive: [10] 98 % of control | [13] 97 % of control | [14] 94 % of control

OC1OCC(COc2ccc(Cl)cc2)OC1O (configuration not stated)
inactive: [10] 108 % of control and 118 % of control | [13] 111 % of control | [14] 123 % of control

Cc1cc2oc(=O)c3c(c2c(O)c1CN1CCCC1)CCCC3
inactive: dose: 16.0 mg/kg/injection, schedule: Q01DX009 (ip), vehicle: Klucel (hydroxypropylcellulose) (HPC) 97 % of control | dose: 32.0 mg/kg/injection, schedule: Q01DX009 (ip), vehicle: Klucel (hydroxypropylcellulose) (HPC) 101 % of control | dose: 64.0 mg/kg/injection, schedule: Q01DX009 (ip), vehicle: Klucel (hydroxypropylcellulose) (HPC) 103 % of control | dose: 128.0 mg/kg/injection, schedule: Q01DX009 (ip), vehicle: Klucel (hydroxypropylcellulose) (HPC) 97 % of control

CC1CCCC(C2CC3CCCCC3C(N)[N-]2)[N-]1.O=[N+]([O-])O.O=[N+]([O-])O.[Cu+2] (configuration not stated)
inactive: dose: 6.25 mg/kg/injection, schedule: Q04DX002 (ip), vehicle: suspension in saline 93 % of control | dose: 12.5 mg/kg/injection, schedule: Q04DX002 (ip), vehicle: suspension in saline 110 % of control

CCSC(=O)OCC(F)([N+](=O)[O-])[N+](=O)[O-]
inactive: [12] 108 % of control | dose: 200.0 mg/kg/injection, schedule: Q04DX003 (ip), vehicle: saline 100 % of control | dose: 400.0 mg/kg/injection, schedule: Q04DX003 (ip), vehicle: saline 104 % of control

COC(=O)c1nn(-c2ccc(Cl)cc2)c2nc3ccccc3c-2c1C(=O)OC
inactive: dose: 100.0 mg/kg/injection, schedule: Q01DX001 (ip), vehicle: saline with Tween-80 96 % of control | dose: 200.0 mg/kg/injection, schedule: Q01DX001 (ip), vehicle: saline with Tween-80 115 % of control | dose: 400.0 mg/kg/injection, schedule: Q01DX001 (ip), vehicle: saline with Tween-80 96 % of control
